Data published in paper PMC6214108, “Synthesis and In Vitro Antitumor Activity of Novel Bivalent β-Carboline-3-carboxylic Acid Derivatives with DNA as a Potential Target” (International Journal of Molecular Sciences, 2018).

Legend:
Type in all cases: cell-based
[1] = system: SGC-7901 (gastric carcinoma) cell line; experiment: MTT cytotoxicity assay, SGC-7901; conditions: Homo sapiens, 48 h, mean of three independent experiments, read-out: IC50 (μM) Mean ± SD, SGC-7901
Procedure: (§1) All cell lines (A549, SGC-7901, Hela, SMMC-7721, and MCF-7) were purchased from the American Type Culture Collection (Manassas, VA, USA), and were cultured in Dulbecco’s modified Eagle’s medium (DMEM, HycloneLaboratories Inc., Logan, Utah, USA) supplemented with 10% fetal bovine serum (FBS, Gibco&Invitrogen, Carlsbad, CA, USA) at 37 °C and 5% CO2.
(§2) The cytotoxic activities of β-carboline-3-carboxylic acid derivatives were investigated by the MTT method, as previously described. Cells (1 × 10^4 cells per well) seeded into 96-well plates (JET, Guangzhou, China) were incubated with DMEM containing various concentrations (2.5, 5, 10, 20, 40, and 80 μM) of β-carbolines (4A, 4B, 4C, 4D, 6a-6f, 6g-6l, 6m-6r, and 6s-6x) for 48 h at 37 °C and 5% CO2. Then, 10 µL of 5 mg/mL MTT reagent dissolved in PBS (Phosphate buffered saline) was added per well, and plates were incubated at 37 °C for 4 h. The medium was carefully removed and 100 µL dimethyl sulfoxide (DMSO) was added to dissolve the formazan crystals. The absorbance was measured at 490 nm with a microplate reader (ThermoFisher Scientific Inc., Waltham, MA, USA). The β-carbolines were dissolved in DMSO as stock solutions (10 mM) at −20 °C, and diluted in the final experimental solution using DMEM before use. A549 (lung carcinoma), SGC-7901 (gastric carcinoma), Hela (cervical carcinoma), SMMC-7721 (liver carcinoma), and MCF-7 (breast carcinoma) cell lines were used for the antitumor activity screening. The IC50 values were the mean values of three independent experiments.

[2] = system: Hela (cervical carcinoma) cell line; experiment: MTT cytotoxicity assay, Hela; conditions: Homo sapiens, 48 h, mean of three independent experiments, read-out: IC50 (μM) Mean ± SD, Hela
Procedure: as §1, §2

[3] = system: SMMC-7721 (liver carcinoma) cell line; experiment: MTT cytotoxicity assay, SMMC-7721; conditions: Homo sapiens, 48 h, mean of three independent experiments, read-out: IC50 (μM) Mean ± SD, SMMC-7721
Procedure: as §1, §2

[4] = system: MCF-7 (breast carcinoma) cell line; experiment: MTT cytotoxicity assay, MCF-7; conditions: Homo sapiens, MCF7, 48 h, mean of three independent experiments, read-out: IC50 (μM) Mean ± SD, MCF-7
Procedure: as §1, §2

A549 cells = experiment: Cell apoptosis assay, Annexin V-FITC/PI dual staining, flow cytometry; conditions: 48 h; for Percentage of Cell Apoptosis (%) Normal Living Cell: lower left quadrant in Figure 3; for Percentage of Cell Apoptosis (%) Early Apoptosis: lower right quadrant in Figure 3
Procedure: The cell apoptosis was evaluated using Annexin V-FITC/PI dual staining (Beyotime, China). A549 cells (1 × 10^6 cells per well) seeded into 6-well plates (JET, Guangzhou, China) were incubated with DMEM containing various concentrations (2, 4, and 8 μM) of β-carbolines (4B, 6i, 4D, and 6u) for 48 h at 37 °C and 5% CO2. The cells in the supernatant and adherent were collected and washed with PBS, and then the cells were stained with Annexin V-FITC and PI for 20 min at r.t. The samples were analyzed using flow cytometry (Becton Dickinson, San Jose, CA, USA).
Figure 3 The cell apoptosis was detected by flow cytometry using Annexin V-FITC/PI dual staining. A549 cells were treated with 4B, 6i, 4D, and 6u at 2, 4, and 8 μM for 48 h, and then stained with Annexin V-FITC and PI for 15 min at 37 °C. The proportions of the living cells, the early apoptosis cells, and the late apoptotic cells were analyzed by FCS Express 5.0. TEXT PRINTED IN THE PICTURE: 4B: 9.00% (2 μM); 11.89% (2 μM); 75.93% (2 μM); 3.18% (2 μM); 8.92% (4 μM); 27.14% (4 μM); 48.59% (4 μM); 15.35% (4 μM); 3.89% (8 μM); 65.76% (8 μM); 21.95% (8 μM); 8.40% (8 μM) | 6i: 0.77% (2 μM); 20.26% (2 μM); 72.12% (2 μM); 6.85% (2 μM); 9.33% (4 μM); 33.08% (4 μM); 44.94% (4 μM); 12.65% (4 μM); 23.51% (8 μM); 59.73% (8 μM); 12.52% (8 μM); 4.24% (8 μM) | Control: 0.36%; 7.08%; 88.34%; 4.22% | 4D: 2.62% (2 μM); 16.16% (2 μM); 73.94% (2 μM); 7.27% (2 μM); 10.30% (4 μM); 34.96% (4 μM); 47.93% (4 μM); 6.80% (4 μM); 22.79% (8 μM); 54.30% (8 μM); 17.63% (8 μM); 5.28% (8 μM) | 6u: 0.17% (2 μM); 21.64% (2 μM); 66.05% (2 μM); 12.14% (2 μM); 6.92% (4 μM); 54.01% (4 μM); 32.53% (4 μM); 6.54% (4 μM); 2.79% (8 μM); 80.73% (8 μM); 8.83% (8 μM); 7.65% (8 μM) DOUBTS OF THE COPYIST ABOUT THIS PICTURE: The quadrant percentages carry no printed measure. For each plot they are listed in the order upper left, upper right, lower left, lower right. / All quadrant percentages are printed very small and blurred, so 3, 5, 6, 8 and 9 cannot be told apart with certainty in any of them.

Structure (SMILES)	IC50 [1] [µM]	IC50 [2] [µM]	IC50 [3] [µM]	IC50 [4] [µM]	Percentage of Cell Apoptosis (%) Late Apoptosis and Necrosis (A549 cells; A549, 2 μM) [%]	Percentage of Cell Apoptosis (%) Normal Living Cell (A549 cells; A549, 2 μM) [%]	Percentage of Cell Apoptosis (%) Early Apoptosis (A549 cells; A549, 2 μM) [%]	Percentage of Cell Apoptosis (%) Late Apoptosis and Necrosis (A549 cells; A549, 4 μM) [%]	Percentage of Cell Apoptosis (%) Normal Living Cell (A549 cells; A549, 4 μM) [%]	Percentage of Cell Apoptosis (%) Early Apoptosis (A549 cells; A549, 4 μM) [%]	Percentage of Cell Apoptosis (%) Late Apoptosis and Necrosis (A549 cells; A549, 8 μM) [%]	Percentage of Cell Apoptosis (%) Normal Living Cell (A549 cells; A549, 8 μM) [%]	Percentage of Cell Apoptosis (%) Early Apoptosis (A549 cells; A549, 8 μM) [%]
COC(=O)c1cc2c3ccccc3n(Cc3ccccc3F)c2cn1 [Compound 4D]	17.8 ± 0.66	26.4 ± 1.33	35.6 ± 1.33	53.9 ± 2.02	18.78	73.94	7.27	45.26	47.93	6.80	77.09	17.63	5.28
O=C(OCCCCCOC(=O)c1cc2c3ccccc3n(Cc3ccccc3F)c2cn1)c1cc2c3ccccc3n(Cc3ccccc3F)c2cn1 [Compound 6u]	5.86 ± 0.08	14.6 ± 0.36	16.68 ± 0.11	36 ± 2.99	21.81	66.05	12.14	60.93	32.53	6.54	83.52	8.83	7.65
Cc1ccccc1Cn1c2ccccc2c2cc(C(=O)OCCCCCOC(=O)c3cc4c5ccccc5n(Cc5ccccc5C)c4cn3)ncc21 [Compound 6i]	7.18 ± 0.01	9.88 ± 0.04	14.2 ± 0.28	59.3 ± 5.86	21.03	72.12	6.85	42.41	44.94	12.65	83.24	12.52	4.24
COC(=O)c1cc2c3ccccc3n(Cc3ccccc3C)c2cn1 [Compound 4B]	42.3 ± 2.13	31.3 ± 2.33	> 80	> 80	20.89	75.93	3.18	36.06	48.59	15.35	69.65	21.95	8.40
